Converted amounts (≈) assume the structure as drawn. Like-named read-outs stand apart in the source and are kept apart here. Numbered stars: 1 amine (or outer) side, 2 acyl side, 3 side chain; on linkers, the order of the positions; unused ones are H or OH. Bridge positions count the residues as written; N and C are the ends. Square brackets hold non-standard residues; d marks the D form. Peptide text beside a SMILES is read from it. * marks the point of attachment. Piperazine(2S-CO,4-Me) = CN1CCN[C@H](C(=O)O)C1; NH(1,3-benzodioxol-5-yl) = c1cc2c(cc1N*)OCO2; Phe(3,5-Me2) = Cc1cc(C)cc(C[C@H](N)C(=O)O)c1; Phe(3-Me) = Cc1cccc(C[C@H](N)C(=O)O)c1; NH(4-Cl-2-F-phenyl) = Fc1cc(Cl)ccc1N*; Pro(4R-Me) = C[C@H]1CN[C@H](C(=O)O)C1; Hyp = O=C(O)[C@@H]1C[C@@H](O)CN1; NH(4-Et-phenyl) = CCc1ccc(N*)cc1; NH(4-Me-phenyl) = Cc1ccc(N*)cc1; aThr = C[C@H](O)[C@H](N)C(=O)O; Pip = O=C(O)[C@@H]1CCCCN1; CO = O=C([*:1])[*:2]
How the values were obtained:
[1] = target: T1, Sa-ClpP (Staphylococcus aureus, UniProt Q2G036); test: ADEP displacement fluorescence polarization assay; assay type: binding, S. aureus; conditions: displacement of FP probe ADEP 2591 from Sa-ClpP
T1 construct: made in house; host or cells: E. coli BL21 (DE3)
T1 sequence (Q2G036 whole entry): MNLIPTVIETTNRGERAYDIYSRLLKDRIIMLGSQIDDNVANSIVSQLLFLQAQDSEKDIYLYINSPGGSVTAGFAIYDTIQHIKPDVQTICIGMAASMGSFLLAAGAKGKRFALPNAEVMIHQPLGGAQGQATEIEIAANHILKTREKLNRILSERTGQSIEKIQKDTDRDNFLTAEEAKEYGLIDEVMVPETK
Summary of the method: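 Master mix of 15 μM Sa-ClpP and 50 nM TAMRA-labelled ADEP 2591 probe in Tris-HCl pH 8.0, 2% DMSO, was pre-equilibrated 1 h at RT, then compounds were added and incubated 120 min at RT. Polarization (ex 530, em 579 nm, mP) was normalised to 200 μM ADEP 2378 and DMSO controls and fitted by four-parameter regression, in triplicate.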

[2] = Solubility determination; assay type: physicochemical; conditions: for solubility kinetic at 10 min: 22 °C, aqueous buffer, kinetic from dmso stock
Summary of the method: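 DMSO stock spiked into DPBS at 100 µM final, in triplicate, shaken 10 min, then centrifuged 20 min at 22 °C. Supernatant quantified by UPLC-UV and single-ion-recording MS against DMSO calibration standards (0.098–100 µM), using 1/x²-weighted linear regression.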

[3] = solubility in DPBS, 100 μM test samples, LCMS, read-out: LCMS

SMILES	IC50 [1]	solubility kinetic at 10 min [2, 3]	μsol (μM) ([2]; solubility)	μsol (μM) [2]	solubility kinetic at 10 min [2]	μsol (μg/mL) ([2]; solubility)	μsol (μg/mL) [2]
Cc1ccc(NC(=O)N[C@@H](Cc2cccc(C)c2)C(=O)N[C@H]2COC(=O)[C@@H]3C[C@@H](C)CN3C(=O)[C@H](C)NC(=O)[C@@H]3CN(C)CCN3C(=O)[C@@H]3CCCN3C2=O)cc1 [Compound 15, (S)-3-(M-TOLYL)-2-(3-(P-TOLYL)UREIDO)-N-((6AS,12S,15AS,17R,21S,23AS)-2,17,21-TRIMETHYL-6,11,15,20,23-PENTAOXOOCTADECAHYDRO-2H,6H,11H,15H-PYRAZINO[2,1-I]DIPYRROLO[2,1-C:2′,1′-L][1]OXA[4,7,10,13]TETRAAZACYCLOHEXADECIN-12-YL)PROPANAMIDE] ({NH(4-Me-phenyl)-CO}-[Phe(3-Me)]SP[Piperazine(2S-CO,4-Me)]A[Pro(4R-Me)]; ester 2-C)	8.12 ± 0.2 µM	57.2 ± 1.1 µM (≈ 45 µg/mL)	25.1 ± 1.7 µM				
Cc1cccc(C[C@H](NC(=O)Nc2ccc3c(c2)OCO3)C(=O)N[C@H]2COC(=O)[C@@H]3C[C@@H](C)CN3C(=O)[C@H](C)NC(=O)[C@@H]3CN(C)CCN3C(=O)[C@@H]3CCCN3C2=O)c1 [Compound 17, (S)-2-(3-(BENZO[D][1,3]DIOXOL-5-YL)UREIDO)-3-(M-TOLYL)-N-((6AS,12S,15AS,17R,21S,23AS)-2,17,21-TRIMETHYL-6,11,15,20,23-PENTAOXOOCTADECAHYDRO-2H,6H,11H,15H-PYRAZINO[2,1-I]DIPYRROLO[2,1-C:2′,1′-L][1]OXA[4,7,10,13]TETRAAZACYCLOHEXADECIN-12-YL)PROPANAMIDE] ({NH(1,3-benzodioxol-5-yl)-CO}-[Phe(3-Me)]SP[Piperazine(2S-CO,4-Me)]A[Pro(4R-Me)]; ester 2-C)	6.02 ± 0.2 µM			71.1 ± 0.7 µM	64.6 ± 2 µM (≈ 52.8 µg/mL)		
CCc1ccc(NC(=O)N[C@@H](Cc2cccc(C)c2)C(=O)N[C@@H]2C(=O)N3C[C@H](O)C[C@H]3C(=O)N3CCCC[C@H]3C(=O)N[C@@H](C)C(=O)N3C[C@H](C)C[C@H]3C(=O)O[C@H]2C)cc1 [Compound 25, (S)-2-(3-(4-ETHYLPHENYL)UREIDO)-N-((2R,6S,8AS,14AS,16R,20S,21S,23AS)-16-HYDROXY-2,6,21-TRIMETHYL-5,8,14,19,23-PENTAOXOOCTADECAHYDRO-1H,5H,14H,19H-PYRIDO[2,1-I]DIPYRROLO[2,1-C:2′,1′-L][1]OXA[4,7,10,13]TETRAAZACYCLOHEXADECIN-20-YL)-3-(M-TOLYL)PROPANAMIDE] ({NH(4-Et-phenyl)-CO}-[Phe(3-Me)][aThr][Hyp][Pip]A[Pro(4R-Me)]; ester 2-C)	4.76 ± 0.33 µM			9.0 ± 0.3 µM	18.6 ± 1.17 µM (≈ 15.2 µg/mL)		
Cc1ccc(NC(=O)N[C@@H](Cc2cccc(C)c2)C(=O)N[C@@H]2C(=O)N3CCC[C@H]3C(=O)N3CCCC[C@H]3C(=O)N[C@@H](C)C(=O)N3C[C@H](C)C[C@H]3C(=O)O[C@H]2C)cc1 [Compound 1, (S)-3-(M-TOLYL)-2-(3-(P-TOLYL)UREIDO)-N-((2R,6S,8AS,14AS,20S,21S,23AS)-2,6,21-TRIMETHYL-5,8,14,19,23-PENTAOXOOCTADECAHYDRO-1H,5H,14H,19H-PYRIDO[2,1-I]DIPYRROLO[2,1-C:2′,1′-L][1]OXA[4,7,10,13]TETRAAZACYCLOHEXADECIN-20-YL)PROPANAMIDE] ({NH(4-Me-phenyl)-CO}-[Phe(3-Me)][aThr]P[Pip]A[Pro(4R-Me)]; ester 2-C)	7.48 ± 0.5 µM	22.9 µM (≈ 18 µg/mL)	40.7 µM			32.0 µg/mL	
Cc1ccc(NC(=O)N[C@@H](Cc2cccc(C)c2)C(=O)N[C@@H]2C(=O)N3C[C@H](O)C[C@H]3C(=O)N3CCN(C)C[C@H]3C(=O)N[C@@H](C)C(=O)N3C[C@H](C)C[C@H]3C(=O)O[C@H]2C)cc1 [Compound 30, (S)—N-((6AS,8R,12S,13S,15AS,17R,21S,23AS)-8-HYDROXY-2,13,17,21-TETRAMETHYL-6,11,15,20,23-PENTAOXOOCTADECAHYDRO-2H,6H,11H,15H-PYRAZINO[2,1-I]DIPYRROLO[2,1-C:2′,1′-L][1]OXA[4,7,10,13]TETRAAZACYCLOHEXADECIN-12-YL)-3-(M-TOLYL)-2-(3-(P-TOLYL)UREIDO)PROPANAMIDE] ({NH(4-Me-phenyl)-CO}-[Phe(3-Me)][aThr][Hyp][Piperazine(2S-CO,4-Me)]A[Pro(4R-Me)]; ester 2-C)	3.41 ± 0.41 µM	68.8 ± 8.8 µM (≈ 56.2 µg/mL)	54.5 ± 4.5 µM				
Cc1cc(C)cc(C[C@H](NC(=O)Nc2ccc(Cl)cc2F)C(=O)N[C@@H]2C(=O)N3CCC[C@H]3C(=O)N3CCCC[C@H]3C(=O)N[C@@H](C)C(=O)N3C[C@H](C)C[C@H]3C(=O)O[C@H]2C)c1 [Compound 4, (S)-2-(3-(4-CHLORO-2-FLUOROPHENYL)UREIDO)-3-(3,5-DIMETHYLPHENYL)-N-((2R,6S,8AS,14AS,20S,21S,23AS)-2,6,21-TRIMETHYL-5,8,14,19,23-PENTAOXOOCTADECAHYDRO-1H,5H,14H,19H-PYRIDO[2,1-I]DIPYRROLO[2,1-C:2′,1′-L][1]OXA[4,7,10,13]TETRAAZACYCLOHEXADECIN-20-YL)PROPANAMIDE] ({NH(4-Cl-2-F-phenyl)-CO}-[Phe(3,5-Me2)][aThr]P[Pip]A[Pro(4R-Me)]; ester 2-C)	6.45 ± 0.4 µM						<0.1 µg/mL
